Pest or weed control data for three compounds are collected here from US12077503B2, “Substituted cyclic amides and their use as herbicides” (FMC CORPORATION, priority 2015, dated 2024).

Assay type in all cases: in vivo
One assay has as its system Kochia (Kochia scoparia). As to the kind of experiment: Test A preemergence. As to conditions: Bassia scoparia, pre-emergence, 240 h; for pest or weed control at 125 g/ha: 125 g ai/ha; for pest or weed control at 500 g/ha: 500 g ai/ha. In short, it runs like this: (§1)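 Seeds sprayed preemergence with a directed soil spray, or plants at 2 to 10 cm height and one- to two-leaf stage sprayed postemergence, with test chemicals in a non-phytotoxic solvent mixture containing surfactant, in loam soil–sand blend. Injury rated visually against untreated controls after about 10 d in greenhouse, 0 (no effect) to 100 (complete control).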

The subject of assay [1] is barnyardgrass (Echinochloa crus-galli). As to the kind of experiment: Test A preemergence. The conditions noted are these: Echinochloa crus-galli, pre-emergence, 240 h; for pest or weed control at 125 g/ha: 125 g ai/ha; for pest or weed control at 500 g/ha: 500 g ai/ha. In short, it runs like this:
as §1

The subject of assay [2] is giant foxtail (Setaria faberii). As to the kind of experiment: Test A preemergence. The conditions noted are these: Setaria faberi, pre-emergence, 240 h; for pest or weed control at 125 g/ha: 125 g ai/ha; for pest or weed control at 500 g/ha: 500 g ai/ha. The procedure, abridged: as §1
Assay [3] concerns pigweed (Amaranthus retroflexus). As to the kind of experiment: Test A preemergence. As to conditions: Amaranthus retroflexus, pre-emergence, 240 h; for pest or weed control at 125 g/ha: 125 g ai/ha; for pest or weed control at 500 g/ha: 500 g ai/ha.
The test system of assay [4] is ragweed (common ragweed, Ambrosia elatior). As to the kind of experiment: Test A preemergence. As to conditions: Ambrosia artemisiifolia, pre-emergence, 240 h, preemergence, 0 to 100 scale where 0 is no effect and 100 is complete control, read-out: Ragweed plant response rating; for pest or weed control at 125 g/ha: 125 g ai/ha, visual injury rating, approximately 10 d; for pest or weed control at 500 g/ha: 500 g ai/ha. In short, it runs like this:
as §1

For assay [5], the system named is ryegrass, Italian (Italian ryegrass, Lolium multiflorum). As to the kind of experiment: Test A preemergence. As to conditions: Lolium multiflorum, pre-emergence, 240 h; for pest or weed control at 125 g/ha: 125 g ai/ha; for pest or weed control at 500 g/ha: 500 g ai/ha. The procedure, abridged: as §1
The subject of assay [6] is giant foxtail (Setaria faberii). As to the kind of experiment: Test A postemergence. The conditions noted are these: Setaria faberi, post-emergence, 240 h; for pest or weed control at 125 g/ha: 125 g ai/ha, read-out: Foxtail, Giant plant response rating (0 to 100 scale); for pest or weed control at 500 g/ha: 500 g ai/ha. The procedure, abridged: as §1
Assay [7] deals with pigweed (Amaranthus retroflexus). As to the kind of experiment: Test A postemergence. As to conditions: Amaranthus retroflexus, post-emergence, 240 h; for pest or weed control at 125 g/ha: 125 g ai/ha, read-out: Pigweed plant response rating (0 to 100 scale); for pest or weed control at 500 g/ha: 500 g ai/ha. The procedure, abridged:
as §1

Assay [8] relates to ryegrass, Italian (Italian ryegrass, Lolium multiflorum). As to the kind of experiment: Test A postemergence. As to conditions: Lolium multiflorum, post-emergence, 240 h; for pest or weed control at 125 g/ha: 125 g ai/ha, read-out: Ryegrass, Italian plant response rating (0 to 100 scale); for pest or weed control at 500 g/ha: 500 g ai/ha. In short, it runs like this:
as §1

Assay [9] concerns barnyardgrass (Echinochloa crus-galli). As to the kind of experiment: Test B flooded paddy test. As to conditions: Echinochloa crus-galli, 250 g ai/ha, Flood; 0 to 100 scale where 0 is no effect and 100 is complete control; read-out: Barnyardgrass plant response rating. The procedure, abridged: (§2)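 Greenhouse paddy pots with 2-leaf stage plants received compound by direct addition to floodwater 3 cm deep, kept at that level. Scored visually at 13–15 d versus controls (0 no effect; 100 complete control).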

In assay [10] the test system is ducksalad (Heteranthera limosa). As to the kind of experiment: Test B flooded paddy test. The conditions noted are these: Heteranthera limosa, 250 g ai/ha, Flood; 0 to 100 scale where 0 is no effect and 100 is complete control; read-out: Ducksalad plant response rating. In short, it runs like this: as §2
For a further assay, the system named is rice (Oryra sativa). As to the kind of experiment: Test B flooded paddy test. The conditions noted are these: Oryza sativa, 250 g ai/ha, Flood; 0 to 100 scale where 0 is no effect and 100 is complete control; read-out: Rice plant response rating. In short, it runs like this: as §2
The subject of assay [11] is sedge, umbrella (small-flower umbrella sedge, Cyperus difformis). As to the kind of experiment: Test B flooded paddy test. As to conditions: Cyperus difformis, 250 g ai/ha, Flood; 0 to 100 scale where 0 is no effect and 100 is complete control; read-out: Sedge, Umbrella plant response rating. The procedure, abridged: as §2
Setting [12] is: preemergence, visual injury rating, 0 to 100 scale where 0 is no effect and 100 is complete control, approximately 10 d, read-out: Kochia plant response rating.
The mark [13] stands for this setting: preemergence, 0 to 100 scale where 0 is no effect and 100 is complete control, read-out: Kochia plant response rating.
The mark [14] stands for this setting: preemergence, visual injury rating, 0 to 100 scale where 0 is no effect and 100 is complete control, approximately 10 d, read-out: Barnyardgrass plant response rating.
The mark [15] stands for this setting: preemergence, 0 to 100 scale where 0 is no effect and 100 is complete control, read-out: Barnyardgrass plant response rating.
The mark [16] stands for this setting: preemergence, visual injury rating, 0 to 100 scale where 0 is no effect and 100 is complete control, approximately 10 d, read-out: Foxtail, Giant plant response rating.
The mark [17] stands for this setting: preemergence, 0 to 100 scale where 0 is no effect and 100 is complete control, read-out: Foxtail, Giant plant response rating.
Where [18] appears, read: preemergence, visual injury rating, 0 to 100 scale where 0 is no effect and 100 is complete control, approximately 10 d, read-out: Pigweed plant response rating.
The mark [19] stands for this setting: preemergence, 0 to 100 scale where 0 is no effect and 100 is complete control, read-out: Pigweed plant response rating.
Setting [20] is: preemergence, visual injury rating, 0 to 100 scale where 0 is no effect and 100 is complete control, approximately 10 d, read-out: Ryegrass, Italian plant response rating.
Setting [21] is: preemergence, 0 to 100 scale where 0 is no effect and 100 is complete control, read-out: Ryegrass, Italian plant response rating.
The mark [22] stands for this setting: postemergence, visual injury vs untreated controls after approx. 10 d, 0 = no effect, 100 = complete control.
Setting [23] is: postemergence, 0 to 100 scale, 0 is no effect, 100 is complete control, read-out: Foxtail, Giant plant response rating.
The mark [24] stands for this setting: postemergence, 0 to 100 scale, 0 is no effect, 100 is complete control, read-out: Pigweed plant response rating.
[25] abbreviates: postemergence, 0 to 100 scale, 0 is no effect, 100 is complete control, read-out: Ryegrass, Italian plant response rating.
The mark [26] stands for this setting: Postemergence, visual rating about 10 d after treatment.

Where two headings read alike, the source gives them in different places.

Turning to `COc1ccc([C@H]2CN(C)C(=O)[C@@H]2C(=O)Nc2ccccc2F)c(OC)c1` [Compound 1215], the pest or weed control at 125 g/ha with Kochia (Kochia scoparia) (setting [12]) turned out to be 0%; in assay [1] (setting [14]), 90%; in [2] (setting [16]) it was 60%; in assay [3] (setting [18]), 0%; in [4], 0%; in assay [5] (setting [20]), 0%. Moreover, the figures for the pest or weed control at 125 g/ha in [6] (setting [22]), in assay [7] (setting [22]) and in assay [8] (setting [22]) were 70%, 0% and 0%, respectively. Also, the pest or weed control at 500 g/ha is 90% with Kochia (Kochia scoparia) (setting [13]); 100% in assay [1] (setting [15]); 90% in assay [2] (setting [17]); 0% in assay [3] (setting [19]); 0% in [4]; 0% in assay [5] (setting [21]). Also, the pest or weed control at 500 g/ha in assay [6] (setting [23]) is 90%; in assay [7] (setting [24]) it was 0%; in assay [8] (setting [25]) it was 0%. The pest or weed control at 250 g/ha is 0% in assay [9], 70% in assay [10], 0% with rice (Oryra sativa) and 0% in assay [11].

On to `COc1cc([C@H]2CN(C)C(=O)[C@@H]2C(=O)Nc2ccccc2F)cc(OC)c1OC` [Compound 1217], for which the pest or weed control at 125 g/ha with Kochia (Kochia scoparia) (setting [12]) was 0%; in assay [1] (setting [14]), 90%; in assay [2] (setting [16]) it was 90%; in assay [3] (setting [18]), 0%; in [4], 0%; in assay [5] (setting [20]), 0%. Besides, the pest or weed control at 125 g/ha in [6] (setting [22]) came out at 90%; in assay [7] (setting [22]), 0%; in assay [8] (setting [22]) it was 0%. Further, the pest or weed control at 500 g/ha in the assay with Kochia (Kochia scoparia) (setting [13]) stood at 0%; in [1] (setting [15]) it was 100%; in assay [2] (setting [17]) it was 100%; in [3] (setting [19]) it was 0%; in assay [4], 0%; in assay [5] (setting [21]), 0%. Besides, the pest or weed control at 500 g/ha was 90% in assay [6] (setting [23]), 0% in assay [7] (setting [24]) and 0% in [8] (setting [25]). Further, the pest or weed control at 250 g/ha in assay [9] amounted to 0%; in assay [10], 40%; with rice (Oryra sativa), 25%; in assay [11], 0%.

As for `Cc1cc([C@H]2CN(C)C(=O)[C@@H]2C(=O)Nc2cccc(F)c2C)ccc1F` [Compound 1311], the pest or weed control at 500 g/ha in the assay on Kochia (Kochia scoparia) (setting [13]) came out at 100%; in assay [1] (setting [15]) it was 100%; in assay [2] (setting [17]), 100%; in assay [3] (setting [19]) it was 20%; in [4], 90%; in assay [6] (Postemergence, visual injury, 0 to 100 scale (0 no effect, 100 complete control), approx. 10 d, read-out: Plant response rating, Foxtail, Giant) it was 90%. The pest or weed control at 500 g/ha in assay [7] (Postemergence, visual injury, 0 to 100 scale (0 no effect, 100 complete control), approx. 10 d, read-out: Plant response rating, Pigweed) was 20%; in assay [8] (Postemergence, visual injury, 0 to 100 scale (0 no effect, 100 complete control), approx. 10 d, read-out: Plant response rating, Ryegrass, Italian) it was 80%. Further, the pest or weed control at 125 g/ha in the assay on Kochia (Kochia scoparia) (Preemergence, 0 to 100 scale (0 no effect, 100 complete control), read-out: Plant response rating, Kochia) is 70%; in assay [1] (Preemergence, 0 to 100 scale (0 no effect, 100 complete control), read-out: Plant response rating, Barnyardgrass), 100%; in assay [2] (Preemergence, 0 to 100 scale (0 no effect, 100 complete control), read-out: Plant response rating, Foxtail, Giant), 100%; in assay [3] (Preemergence, 0 to 100 scale (0 no effect, 100 complete control), read-out: Plant response rating, Pigweed) it was 0%; in [5] (Preemergence, 0 to 100 scale (0 no effect, 100 complete control), read-out: Plant response rating, Ryegrass, Italian) it was 70%; in [6] (setting [26]), 90%. Further, the pest or weed control at 125 g/ha in [7] (setting [26]) stood at 0%; in [8] (setting [26]), 40%. The pest or weed control at 250 g/ha in [9] was 80%; in assay [10], 100%; with rice (Oryra sativa) it was 0%; in [11], 0%.
